These results are taken from publication PMC1781467, “In silico panning for a non-competitive peptide inhibitor” (BMC Bioinformatics, 2007).

The target in test [1] is T1, PQQGDH (Acinetobacter calcoaceticus, UniProt P13650). The test can be described thus: PQQGDH activity for glucose in the presence of synthetic peptides (PMS/DCIP assay). In kind it is biochemical. Particulars: derived from the Dixon plot; 0.57 nM apo-PQQGDH, glucose substrate, pH 7.0; read-out: Ki (inhibition constant). Here is the method: The three peptides with the lowest docking energies, GEKD, GERD, and SERG, and the control peptide DDDD were synthesized by Qiagen (Chatsworth, CA, USA). […] In general, purified PQQGDH is a mixture of an apo- and holo-type enzyme. Therefore, we dialyzed the enzyme against 100 mM EDTA and 10 mM MOPS-NaOH buffer for 2 days, to remove the Ca^2+ ions. Each synthesized peptide was prepared at concentrations of 0.2, 1, 2, 10, and 20 μM. The prepared peptides and 0.57 nM of apo-PQQGDH were incubated in 10 mM MOPS-NaOH buffer (pH 7.0) for 10 min at room temperature. PQQGDH activity was measured using 0.6 mM PMS and 0.06 mM DCIP. Decreased in the absorbance of DCIP at 600 nm at various concentrations of glucose were monitored, and the kinetic parameters of PQQGDH were as described previously. The kinetic parameters and Ki values were calculated using the KaleidaGraph software.

Test [2] addresses T1, PQQGDH. Set-up: method as in PMID 12882541. The settings on record: peptide from phage display peptide library; cited from earlier work.

Ends that are not written are not given here. Peptide text beside a SMILES is read from it.

T1 sequence (P13650 25-478): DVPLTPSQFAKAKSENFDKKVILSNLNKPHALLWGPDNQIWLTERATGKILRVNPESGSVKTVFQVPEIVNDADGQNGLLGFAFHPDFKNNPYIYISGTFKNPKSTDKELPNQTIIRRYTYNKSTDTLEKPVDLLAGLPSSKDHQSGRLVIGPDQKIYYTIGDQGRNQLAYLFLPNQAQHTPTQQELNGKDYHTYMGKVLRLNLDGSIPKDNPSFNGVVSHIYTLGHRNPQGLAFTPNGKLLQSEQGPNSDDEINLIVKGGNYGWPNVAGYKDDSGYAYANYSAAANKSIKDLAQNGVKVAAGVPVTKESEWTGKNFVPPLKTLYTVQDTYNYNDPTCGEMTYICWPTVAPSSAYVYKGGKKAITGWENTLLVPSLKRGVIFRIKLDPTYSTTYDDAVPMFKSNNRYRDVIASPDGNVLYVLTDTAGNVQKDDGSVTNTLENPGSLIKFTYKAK

By Ki is commonly meant the equilibrium dissociation constant of an inhibitor or competing ligand from its target. With `N[C@@H](CC(=O)O)C(=O)N[C@@H](CC(=O)O)C(=O)N[C@@H](CC(=O)O)C(=O)N[C@@H](CC(=O)O)C(=O)O` [DDDD] (H-DDDD-OH), the Ki on PQQGDH [1] is greater than 100 µM.
As for `NCCCC[C@H](NC(=O)[C@H](CCC(=O)O)NC(=O)CN)C(=O)N[C@@H](CC(=O)O)C(=O)O` [GEKD] (H-GEKD-OH), the inhibitory constant (Ki) on PQQGDH [1] is greater than 20 µM.
On the same count and under the same terms, the same measure for `N=C(N)NCCC[C@H](NC(=O)[C@H](CCC(=O)O)NC(=O)CN)C(=O)N[C@@H](CC(=O)O)C(=O)O` [GERD] (H-GERD-OH): greater than 20 µM; for `N=C(N)NCCC[C@H](NC(=O)[C@H](CCC(=O)O)NC(=O)[C@@H](N)CO)C(=O)NCC(=O)O` [SERG] (H-SERG-OH): 20 µM.
As to “TTATEYS [seven-amino-acid peptide previously identified from a phage display peptide library]”, the “Effect on substrate specificity of PQQGDH” value in the test with PQQGDH [2] is on record as “narrowed the substrate specificity of PQQGDH without significant loss of enzyme activity”.
